# Earlier results, collected in US8188084B2, “Pyridinone and pyridazinone derivatives as inhibitors of poly (ADP-ribose) polymerase (PARP)” (Istituto di Ricerche di Biologia Molecolare P. Angeletti …, priority 2006, dated 2012).
# System: ischemia and reperfusion of the heart or skeletal muscle
# Details: rabbits
SMILES,"reductions in infarct size in the heart (single injection 10 mg/kg, one minute before occlusion or one minute before reperfusion)",reduced infarct size (single injection 1 mg/kg)
NC(=O)c1cccc(N)c1 [3-amino-benzamide],32-42%,
"Oc1cccc2c(O)nccc12 [1,5-dihydroxyisoquinoline]",,38-48%
